ChEMBL document CHEMBL6109147, “Discovery of Potent STING Inhibitors Bearing a Difluorobenzodioxol Structural Motif as Potent Anti-Inflammatory Agents” (J Med Chem, 2025)
Activity calls are given as the source filed them. The calls are words filed in the database; no cut-off is given here.

How the values were obtained:
Mus musculus [1] = assay: Anti-inflammatory activity against MSA-2 induced C57BL/6 mouse inflammation model assessed as inhibition of MSA-2 induced Isg15 mRNA expression in kidney at 10 mg/kg, ip pre-treated for 1 hr followed by stimulated with MSA-2 for 4 hrs by real-time PCR analysis; assay type: functional, organism-based; conditions: time 5.0 hrs
[2] = Half life in Sprague-Dawley rat at 3 mg/kg, po; assay type: ADME, organism-based; conditions: in vivo
[3] = AUC (0 to infinity) in Sprague-Dawley rat at 3 mg/kg, po; assay type: ADME, organism-based; conditions: in vivo
Mus musculus [4] = assay: Effect on […] expression in Cisplatin induced C57BL/6 STING-KO mouse kidney inflammation model at 5 mg/kg, ip treated for 3 days by real-time PCR analysis; assay type: functional, organism-based; conditions: time 3.0 day
[5] = target: Stimulator of interferon genes protein (Homo sapiens) (UniProt Q86WV6); assay: Inhibition of human wild type STING (R232) expressed in human 293-Dual hSTING-R232 cells assessed as reduction in cGAMP-induced TNF-alpha expression; assay type: cell-based
Sequence of Stimulator of interferon genes protein (Homo sapiens) (Q86WV6 whole entry): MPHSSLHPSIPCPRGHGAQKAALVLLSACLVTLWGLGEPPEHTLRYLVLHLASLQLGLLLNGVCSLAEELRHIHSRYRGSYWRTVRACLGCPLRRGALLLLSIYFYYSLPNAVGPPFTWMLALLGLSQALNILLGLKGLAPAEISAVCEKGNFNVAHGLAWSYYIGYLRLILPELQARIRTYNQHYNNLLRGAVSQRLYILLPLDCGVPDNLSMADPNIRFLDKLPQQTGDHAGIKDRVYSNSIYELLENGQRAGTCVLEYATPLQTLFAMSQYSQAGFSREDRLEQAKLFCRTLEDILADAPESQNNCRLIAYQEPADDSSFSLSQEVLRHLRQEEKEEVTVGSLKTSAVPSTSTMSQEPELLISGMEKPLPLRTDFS

Mus musculus [6] = assay: Anti-inflammatory activity against MSA-2 induced C57BL/6 mouse inflammation model assessed as inhibition of MSA-2 induced IL-6 level in kidney at 10 mg/kg, ip pre-treated for 1 hr followed by stimulated with MSA-2 for 4 hrs by ELISA; assay type: functional, organism-based; conditions: time 5.0 hrs
[7] = target: T1, Stimulator of interferon genes protein (Mus musculus) (UniProt Q3TBT3); assay: Inhibition of STING downstream signalling in mouse BMDM cells assessed as inhibition of MSA-2 induced IRF3 phosphorylation pre-treated for 1 hr followed by stimulated with MSA-2 measured after 4 hrs by Western blot analysis; assay type: cell-based; conditions: dose 0.3-3 µM, time 5.0 hrs
T1 sequence (whole entry): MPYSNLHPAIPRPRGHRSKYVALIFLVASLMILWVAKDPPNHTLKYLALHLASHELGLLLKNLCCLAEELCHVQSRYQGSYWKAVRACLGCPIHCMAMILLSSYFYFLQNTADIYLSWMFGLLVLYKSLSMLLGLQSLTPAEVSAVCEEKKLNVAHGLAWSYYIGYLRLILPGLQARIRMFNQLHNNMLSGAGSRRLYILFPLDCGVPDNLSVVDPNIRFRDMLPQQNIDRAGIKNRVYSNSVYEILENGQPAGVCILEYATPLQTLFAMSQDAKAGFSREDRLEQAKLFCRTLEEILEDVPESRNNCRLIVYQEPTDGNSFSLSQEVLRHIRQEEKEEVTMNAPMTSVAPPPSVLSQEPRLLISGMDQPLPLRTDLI

N#CC/C=C/c1ccc2[nH]cc(NC(=O)Nc3ccc4c(c3)OC(F)(F)O4)c2c1
inhibition (Mus musculus [1]): Active
half-life [2]: 3.27 h
AUC(0-inf) [3]: 74.8 ng·h/mL
Activity (Mus musculus [4]): inactive
inhibition [5]: Active
inhibition (Mus musculus [6]): Active
inhibition [7]: Dose-dependent-effect
